Results from ChEMBL document CHEMBL1141466, “Potent memapsin 2 (beta-secretase) inhibitors: design, synthesis, protein-ligand X-ray structure, and in vivo evaluation” (Bioorg Med Chem Lett, 2008).

How the values were obtained:
Beta-secretase 1 [1] = molecular target: T1, Beta-secretase 1 (Homo sapiens, UniProt P56817)
Description: Inhibition of memapsin 2 expressed in CHO cells

Beta-secretase 1 [2] = molecular target: T1, Beta-secretase 1; remark: listed apart in the source
Description: Binding affinity to recombinant memapsin 2

T1 sequence (P56817 whole entry): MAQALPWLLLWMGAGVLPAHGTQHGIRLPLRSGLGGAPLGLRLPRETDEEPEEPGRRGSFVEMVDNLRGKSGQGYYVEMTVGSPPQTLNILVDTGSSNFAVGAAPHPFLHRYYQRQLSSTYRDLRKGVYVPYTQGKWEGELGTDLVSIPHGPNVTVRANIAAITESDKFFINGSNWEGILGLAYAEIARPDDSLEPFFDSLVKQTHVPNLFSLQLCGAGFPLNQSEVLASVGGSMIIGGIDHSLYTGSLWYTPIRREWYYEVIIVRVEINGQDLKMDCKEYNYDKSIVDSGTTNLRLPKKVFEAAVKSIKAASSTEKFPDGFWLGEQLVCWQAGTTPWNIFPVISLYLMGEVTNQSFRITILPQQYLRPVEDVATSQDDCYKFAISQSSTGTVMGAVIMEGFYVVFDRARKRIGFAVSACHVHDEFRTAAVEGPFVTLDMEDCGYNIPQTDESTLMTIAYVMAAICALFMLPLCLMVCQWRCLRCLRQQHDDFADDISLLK

Row | IC50 (Beta-secretase 1 [1]) [nM] | Ki (Beta-secretase 1 [2]) [nM] | SMILES
1 | 200 | 27 | C[C@@H](NC(=O)c1cc(C(=O)N[C@@H](Cc2ccccc2)[C@H](O)CNCc2ccc3ccn(S(C)(=O)=O)c3c2)cc(N(C)S(C)(=O)=O)c1)c1ccccc1
2 | 1100 | 425 | CC(C)NC[C@@H](O)[C@H](Cc1ccccc1)NC(=O)c1cc(C(=O)N[C@H](C)c2ccccc2)cc(N(C)S(C)(=O)=O)c1
3 | – | 15000 | COc1cccc(CNC[C@@H](O)[C@H](Cc2ccccc2)NC(=O)[C@H](CS(C)(=O)=O)NC(=O)OCc2nc(C)oc2C)c1
4 | 620 | 230 | C[C@@H](NC(=O)c1cc(C(=O)N[C@@H](Cc2ccccc2)[C@H](O)CNCc2ccc3cc[nH]c3c2)cc(N(C)S(C)(=O)=O)c1)c1ccccc1
5 | – | 894 | COc1cccc(CNC[C@@H](O)[C@H](Cc2ccccc2)NC(=O)c2cc(C(=O)NC(C)c3nc(C)oc3C)cc(N(C)S(C)(=O)=O)c2)c1 (some centres not stated)
6 | – | 564 | CC(C)NC(=O)[C@@H](NC[C@@H](O)[C@H](Cc1ccccc1)NC(=O)c1cc(C(=O)N[C@H](C)c2ccccc2)cc(N(C)S(C)(=O)=O)c1)C(C)C
7 | – | 552 | COc1cccc(CNC[C@@H](O)[C@H](Cc2ccccc2)NC(=O)c2cc(C(=O)NCc3nc(C)oc3C)cc(N(C)S(C)(=O)=O)c2)c1
8 | – | 916 | COc1cccc(CNC[C@@H](O)[C@H](CC(C)C)NC(=O)c2cc(C(=O)N[C@H](C)c3ccccc3)cc(N(C)S(C)(=O)=O)c2)c1
9 | – | 0.12 | Cc1nc(COC(=O)N[C@@H](CS(C)(=O)=O)C(=O)N[C@@H](CC(C)C)[C@@H](O)C[C@@H](C)C(=O)N[C@H](C(=O)NC(C)(C)C)C(C)C)c(C)o1
